Where two headings read alike, the source gives them in different places. Marks after values point to notes of the source that are not given here.
What was measured:
D. immitis L4 larvae = test: Dirofilaria immitis, L4 Stage (DiL4) In Vitro Assay; assay type: cell-based; conditions: for minimal effective concentration: Dirofilaria immitis, 72 h, read-out: DiL4 MED, Minimum Effective Dose, D. immitis L4 larvae motility, in vitro; for DiMf/DiL4: larval stage selectivity; for DiL4 MED: Minimum Effective Dose, D. immitis L4 larvae motility, in vitro
[1] = system: third stage larvae of Haemonchus contortus; test: Haemonchus contortus, Larvae Stage 3 (HcL3) In Vitro Assay; assay type: cell-based; conditions: for minimal effective concentration: Haemonchus contortus, 96 h; for HcL3 MED: Minimum Effective Dose, H. contortus third stage larvae, approximately 96 hours
[2] = system: microfilariae of Dirofilaria immitis; test: Dirofilaria immitis, Microfilaria (DiMf) In Vitro Assay; assay type: cell-based; conditions: for minimal effective concentration: Dirofilaria immitis, 72 h, read-out: DiMf MED, Minimum Effective Dose, D. immitis microfilariae motility, in vitro
[3] = system: circulating microfilariae; test: Heartworm Positive Dog Studies
[4] = system: circulating microfilariae; conditions: dog, in vivo
[5] = read-out: HcL3 MED (symbol after Ex#), approximately 96 hours incubation, multiple-resistant field isolate
[6] = read-out: HcL3 MED, Minimum Effective Dose, H. contortus third stage larvae, approximately 96 hours
[7] = read-out: HcL3 MED, approximately 96 hours incubation, multiple-resistant field isolate

Molecule: CC(C)C[C@H]1C(=O)O[C@H](Cc2ccc(Cc3scnc3Cl)cc2)C(=O)N(C)[C@@H](CC(C)C)C(=O)O[C@H](C)C(=O)N(C)[C@@H](CC(C)C)C(=O)O[C@H](Cc2ccccc2)C(=O)N(C)[C@@H](CC(C)C)C(=O)O[C@H](C)C(=O)N1C [Example 4-107, (3S,6R,9S,12R,15S,18R,21S,24R)-6-benzyl-18-(4-((4-chlorothiazol-5-yl)methyl)benzyl)-3,9,15,21-tetraisobutyl-4,10,12,16,22,24-hexamethyl-1,7,13,19-tetraoxa-4,10,16,22-tetraazacyclotetracosan-2,5,8,11,14,17,20,23-octaone]
- minimal effective concentration (D. immitis L4 larvae): 0.0002 µM
- DiMf/DiL4 (D. immitis L4 larvae; ratio of DiMf MED to DiL4 MED): 15
- minimal effective concentration [1, 5]: < 1 µM
- minimal effective concentration [1, 6]: 0.3 µM
- minimal effective concentration [1, 7]: ≤ 1 µM
- minimal effective concentration [2]: 0.003 µM

Molecule: Cc1noc(C)c1Cc1ccc(C[C@H]2OC(=O)[C@H](CC(C)C)N(C)C(=O)[C@@H](C)OC(=O)[C@H](CC(C)C)N(C)C(=O)[C@@H](Cc3ccccc3)OC(=O)[C@H](CC(C)C)N(C)C(=O)[C@@H](C)OC(=O)[C@H](CC(C)C)N(C)C2=O)cc1 [Example 4-109, (3S,6R,9S,12R,15S,18R,21S,24R)-6-benzyl-18-(4-((3,5-dimethylisoxazol-4-yl)methyl)benzyl)-3,9,15,21-tetraisobutyl-4,10,12,16,22,24-hexamethyl-1,7,13,19-tetraoxa-4,10,16,22-tetraazacyclotetracosan-2,5,8,11,14,17,20,23-octaone]
- minimal effective concentration (D. immitis L4 larvae): 0.0004 µM
- DiMf/DiL4 (D. immitis L4 larvae; ratio of DiMf MED to DiL4 MED): 2.5
- minimal effective concentration [1, 5]: < 1 µM
- minimal effective concentration [1, 6]: 1 µM
- minimal effective concentration [1, 7]: ≤ 1 µM
- minimal effective concentration [2]: 0.001 µM

Molecule: COc1ccc(Cc2ccc(C[C@H]3OC(=O)[C@H](CC(C)C)N(C)C(=O)[C@@H](C)OC(=O)[C@H](CC(C)C)N(C)C(=O)[C@@H](Cc4ccccc4)OC(=O)[C@H](CC(C)C)N(C)C(=O)[C@@H](C)OC(=O)[C@H](CC(C)C)N(C)C3=O)cc2)c(C)n1 [Example 4-118, (3S,6R,9S,12R,15S,18R,21S,24R)-6-benzyl-3,9,15,21-tetraisobutyl-18-(4-((6-methoxy-2-methylpyridin-3-yl)methyl)benzyl)-4,10,12,16,22,24-hexamethyl-1,7,13,19-tetraoxa-4,10,16,22-tetraazacyclotetracosan-2,5,8,11,14,17,20,23-octaone]
- minimal effective concentration (D. immitis L4 larvae): 0.0001 µM
- DiMf/DiL4 (D. immitis L4 larvae; ratio of DiMf MED to DiL4 MED): 10
- minimal effective concentration [1, 5]: < 1 µM
- minimal effective concentration [1, 6]: 0.3 µM
- minimal effective concentration [1, 7]: ≤ 1 µM
- minimal effective concentration [2]: 0.001 µM

Molecule: COc1cc(C)c(Cc2ccc(C[C@H]3OC(=O)[C@H](CC(C)C)N(C)C(=O)[C@@H](C)OC(=O)[C@H](CC(C)C)N(C)C(=O)[C@@H](Cc4ccccc4)OC(=O)[C@H](CC(C)C)N(C)C(=O)[C@@H](C)OC(=O)[C@H](CC(C)C)N(C)C3=O)cc2)cn1 [Example 4-126, (3S,6R,9S,12R,15S,18R,21S,24R)-6-benzyl-3,9,15,21-tetraisobutyl-18-(4-((6-methoxy-4-methylpyridin-3-yl)methyl)benzyl)-4,10,12,16,22,24-hexamethyl-1,7,13,19-tetraoxa-4,10,16,22-tetraazacyclotetracosan-2,5,8,11,14,17,20,23-octaone]
- minimal effective concentration (D. immitis L4 larvae): 0.0002 µM
- DiMf/DiL4 (D. immitis L4 larvae; ratio of DiMf MED to DiL4 MED): 15
- minimal effective concentration [1, 5]: 1 to 3.3 µM
- minimal effective concentration [1, 6]: 1.8 µM
- minimal effective concentration [2]: 0.003 µM

Molecule: Cc1ncccc1Cc1ccc(C[C@H]2OC(=O)[C@H](CC(C)C)N(C)C(=O)[C@@H](C)OC(=O)[C@H](CC(C)C)N(C)C(=O)[C@@H](Cc3ccccc3)OC(=O)[C@H](CC(C)C)N(C)C(=O)[C@@H](C)OC(=O)[C@H](CC(C)C)N(C)C2=O)cc1 [Example 4-139]
- DiL4 MED (D. immitis L4 larvae): 0.4 nM
- DiMf/DiL4 (D. immitis L4 larvae; ratio of DiMf MED to DiL4 MED): 2.5
- HcL3 MED [1]: 1 µM
- HcL3 MED (symbol after Ex#) ([1]; approximately 96 hours incubation, multiple-resistant field isolate): 4-139* (Examples with an asterisk (*) have HcL3 MED values≤1 μM)
- DiMf MED ([2]; Minimum Effective Dose, D. immitis microfilariae motility, in vitro): 1 nM

Molecule: Cc1cnsc1Cc1ccc(C[C@H]2OC(=O)[C@H](CC(C)C)N(C)C(=O)[C@@H](C)OC(=O)[C@H](CC(C)C)N(C)C(=O)[C@@H](Cc3ccc(Cc4sncc4C)cc3)OC(=O)[C@H](CC(C)C)N(C)C(=O)[C@@H](C)OC(=O)[C@H](CC(C)C)N(C)C2=O)cc1 [Example 4-141, (3S,6R,9S,12R,15S,18R,21S,24R)-3,9,15,21-tetraisobutyl-4,6,10,16,18,22-hexamethyl-12,24-bis(4-((4-methylisothiazol-5-yl)methyl)benzyl)-1,7,13,19-tetraoxa-4,10,16,22-tetraazacyclotetracosan-2,5,8,11,14,17,20,23-octaone]
- DiL4 MED (D. immitis L4 larvae; listed as (4-141)): 1 nM
- DiMf/DiL4 (D. immitis L4 larvae; ratio of DiMf MED to DiL4 MED, listed as (4-141)): 3
- minimal effective concentration [1, 5]: 1 to 3.3 µM
- HcL3 MED ([1]; listed as (4-141)): 1.8 µM
- minimal effective concentration [2]: 0.003 µM

Molecule: CC(C)C[C@H]1C(=O)O[C@H](Cc2ccc(N3CCOCC3)cc2)C(=O)N(C)[C@@H](CC(C)C)C(=O)O[C@H](C)C(=O)N(C)[C@@H](CC(C)C)C(=O)O[C@H](Cc2ccc(N3CCOCC3)cc2)C(=O)N(C)[C@@H](CC(C)C)C(=O)O[C@H](C)C(=O)N1C [emodepside, Emodepside, reference compound]
- selectivity against D. immitis L4 (DiMf/DiL4) (D. immitis L4 larvae; ratio of DiMf MED to DiL4 MED): 1 ×
- adverse effects / clinical observations ([3]; heartworm positive dogs, oral, emodepside 1 mg/kg, Example 3-9 3 mg/kg): all treated dogs exhibited adverse effects consistent with dead or dying circulating microfilariae
- Mean MF/mL, Day 0, Post-dose, 2 hours ([3]; heartworm positive dogs, oral, emodepside 1 mg/kg, Example 3-9 3 mg/kg, 2 hours post-dose, blood): 8,300 MF/mL
- Mean MF/mL, Day 0 Pre-dose ([3]; heartworm positive dogs, oral, emodepside 1 mg/kg, Example 3-9 3 mg/kg, Day 0 pre-dose, blood): 61,000 MF/mL
- Mean MF/mL, Day 1 ([3]; heartworm positive dogs, oral, emodepside 1 mg/kg, Example 3-9 3 mg/kg, Day 1, blood): 4,500 MF/mL
- Mean MF/mL, Day 7 ([3]; heartworm positive dogs, oral, emodepside 1 mg/kg, Example 3-9 3 mg/kg, Day 7, blood): 8,800 MF/mL
- % Reduction of MF, Day 0, Post-dose, 2 hours ([3]; vs pre-dose (day 0) levels, oral, emodepside 1 mg/kg, Example 3-9 3 mg/kg, 2 hours post-dose): 87%
- % Reduction of MF, Day 0, Post-dose, 2 hours ([3]; vs pre-dose (day 0) levels, oral, emodepside 1 mg/kg, Example 3-9 3 mg/kg, 2 hours post-dose, listed as Emodepside): 87%
- % Reduction of MF, Day 1 ([3]; vs pre-dose (day 0) levels, oral, emodepside 1 mg/kg, Example 3-9 3 mg/kg, Day 1): 93%
- % Reduction of MF, Day 7 ([3]; vs pre-dose (day 0) levels, oral, emodepside 1 mg/kg, Example 3-9 3 mg/kg, Day 7): 86%

Molecule: (3S,6R,9S,12R,15S,18R,21S,24R)-6-benzyl-18-(4-(hydroxy(6-methoxypyridin-3-yl)methyl)benzyl)-3,9,15,21-tetraisobutyl-4,10,12,16,22,24-hexamethyl-1,7,13,19-tetraoxa-4,10,16,22-tetraazacyclotetracosan-2,5,8,11,14,17,20,23-octaone [Example 3-9]
- % Reduction of MF, Day 0, Post-dose, 2 hours ([3]; dog, in vivo): −11%
- % Reduction of MF, Day 1 ([3]; dog, in vivo): −28%
- % Reduction of MF, Day 7 ([3]; dog, in vivo): −50%
- Mean MF/mL, Day 0, Post-dose, 2 hours ([3]; dog, in vivo): 20,000 MF/mL
- Mean MF/mL, Day 0 Pre-dose ([3]; dog, in vivo): 18,000 MF/mL
- Mean MF/mL, Day 1 ([3]; dog, in vivo): 23,000 MF/mL
- Mean MF/mL, Day 7 ([3]; dog, in vivo): 25,000 MF/mL
- % Reduction of MF, Day 14 ([3]; dog, in vivo, po, 3 mg/kg): −22%
- % Reduction of MF, Day 21 ([3]; dog, in vivo, po, 3 mg/kg): −33%
- Mean MF/mL, Day 14 ([3]; dog, in vivo, po, 3 mg/kg): 22,000 MF/mL
- Mean MF/mL, Day 21 ([3]; dog, in vivo, po, 3 mg/kg): 24,000 MF/mL
- adverse effects / clinical observations [4]: no adverse effects observed
